In article PMC10797628:
Values joined by “and” are separate entries in the source; they are usually repeats but may differ in a detail not shown here. Identical values can stand only once. Like-named read-outs stand apart in the source and are kept apart here.

Tests used:
V45.52I 5-HT1B receptor [1] = biological target: T1, V45.52I 5-HT1B receptor (Homo sapiens, UniProt P28222, V201I); assay: cAMP accumulation in HEK293T cells, V45.52I 5-HT1B; assay type: cell-based; parameters: mutated in house (Quikchange II) HTR01B0000; host or cells: HEK293T; conditions: point-mutated receptor, 3 independent experiments, read-out: pEC50 5-HT1B Receptor V45.52I (converted)
T1 sequence (P28222 whole entry V201I): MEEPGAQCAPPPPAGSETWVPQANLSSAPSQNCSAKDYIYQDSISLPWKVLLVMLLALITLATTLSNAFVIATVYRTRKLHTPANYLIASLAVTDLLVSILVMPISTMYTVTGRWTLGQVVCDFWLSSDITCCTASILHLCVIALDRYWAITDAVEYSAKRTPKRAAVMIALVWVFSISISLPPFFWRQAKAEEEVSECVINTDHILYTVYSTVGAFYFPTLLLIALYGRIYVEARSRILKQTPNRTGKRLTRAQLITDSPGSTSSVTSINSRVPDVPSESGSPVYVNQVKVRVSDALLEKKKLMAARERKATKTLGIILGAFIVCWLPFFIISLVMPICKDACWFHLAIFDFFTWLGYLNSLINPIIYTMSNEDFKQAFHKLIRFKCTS
Method: (§1) Briefly, cells transfected with the desired receptor construct and compounds were incubated in the dark for 90 min at 37 °C. After incubation, cAMP detection reagents were added, and TR-FRET was used to quantify the cAMP produced.
(§2) The functional activity of compounds was determined by stimulating cells expressing the desired receptor with FSK and test compound in parallel with 12 known concentrations of cAMP. The known concentrations of cAMP were used to create a standard curve for each experiment that was used to interpolate the unknown values of cAMP in wells with test compounds. […] The EC50 and EMAX values were determined using the “dose response – log[agonist] vs response (three parameter)” nonlinear regression model in Prism and transformed to pEC50 values, reported as mean ± SD.
(§3) Cell Type Receptor Cell Density [Forskolin] Incubation time
(§4) Summary of functional assay conditions at various 5-HT1 receptor point mutation constructs.

T7.39N 5-HT1B receptor = T7.39N 5-HT1B receptor (Homo sapiens, UniProt P28222, T355N); assay: Radioligand binding, T7.39N 5-HT1B
Chain of T7.39N 5-HT1B receptor (P28222 whole entry T355N): as the sequence (P28222 whole entry V201I) above, with I201V, T355N counted along it
Method: (§5) 48 hours after transfection with the desired receptor construct, cells were isolated for saturation and competition binding assays as previously described.[47],[48],[57] Saturation and competition radioligand binding assays were conducted in an assay buffer consisting of 50 mM Tris HCl, 10 mM MgCl2, and 0.1 mM EDTA in filtered deionized water. […] Briefly, 5–10 μg of the receptor protein, as determined by a Thermo Fisher Pierce BCA protein assay kit, was incubated with 8 concentrations of radioligand in triplicate to determine total binding. […] Nonspecific binding was determined as above for saturation assays.
(§6) For radioligand binding data, nonspecific binding was subtracted from the total binding to get specific binding. Saturation binding data was fit to the “binding saturation-specific binding with hill slope” model. Competition binding data were fit to the “binding competition-one-site fit Ki” non-linear regression model and transformed to pKi values, reported as mean ± SD.
(§7) is 50 mM Tris HCl, 10 mM MgCl2 and 0.1 mM EDTA in filtered deionized water.

human 5-HT1F receptor = biological target: T2, human 5-HT1F receptor (Homo sapiens, UniProt P30939); assay: Radioligand binding (saturation and competition), WT 5-HT1F
T2 construct: host or cells: HEK293T
T2 sequence (P30939 1-366): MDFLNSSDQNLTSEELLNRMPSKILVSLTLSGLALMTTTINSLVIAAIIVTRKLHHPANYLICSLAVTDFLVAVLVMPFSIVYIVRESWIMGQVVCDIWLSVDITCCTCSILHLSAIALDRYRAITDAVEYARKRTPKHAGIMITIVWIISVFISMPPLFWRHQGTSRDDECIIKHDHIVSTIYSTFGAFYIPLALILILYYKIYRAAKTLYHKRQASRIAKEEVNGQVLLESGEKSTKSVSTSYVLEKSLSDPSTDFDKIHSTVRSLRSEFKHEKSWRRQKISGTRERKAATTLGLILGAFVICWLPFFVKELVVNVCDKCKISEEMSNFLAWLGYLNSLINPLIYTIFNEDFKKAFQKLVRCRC

T7.39N 5-HT1D receptor = T7.39N 5-HT1D receptor (Homo sapiens, UniProt P28221, T342N); assay: Radioligand binding, T7.39N 5-HT1D
Chain of T7.39N 5-HT1D receptor (P28221 whole entry T342N): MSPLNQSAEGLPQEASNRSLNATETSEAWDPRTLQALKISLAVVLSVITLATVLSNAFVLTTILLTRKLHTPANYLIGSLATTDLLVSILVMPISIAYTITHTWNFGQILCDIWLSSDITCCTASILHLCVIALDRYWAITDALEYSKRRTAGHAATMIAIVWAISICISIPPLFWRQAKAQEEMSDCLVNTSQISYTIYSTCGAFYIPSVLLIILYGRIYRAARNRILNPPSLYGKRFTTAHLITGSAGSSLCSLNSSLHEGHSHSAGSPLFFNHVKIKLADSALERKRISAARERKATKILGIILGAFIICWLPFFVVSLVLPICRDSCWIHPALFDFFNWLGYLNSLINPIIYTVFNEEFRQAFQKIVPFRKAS
Method: as §5, §6, §7

human 5-HT1B receptor [2] = biological target: T3, human 5-HT1B receptor (Homo sapiens, UniProt P28222); assay: cAMP accumulation (LANCE Ultra TR-FRET) in HEK293T cells, WT 5-HT1B; assay type: cell-based; conditions: for EC50: cAMP accumulation, HEKt cells, mean ± SD; for Emax: HEK-293T
T3 construct: host or cells: HEK293T
T3 sequence (P28222 whole entry): as the sequence (P28222 whole entry V201I) above, with I201V counted along it
Method: as §1, §2, §4

Y5.38F 5-HT1B receptor = biological target: T4, Y5.38F 5-HT1B receptor (Homo sapiens, UniProt P28222, Y208F); assay: cAMP accumulation in HEK293T cells, Y5.38F 5-HT1B; assay type: cell-based; conditions: point-mutated receptor, 3 independent experiments, read-out: pEC50 5-HT1B Receptor Y5.38F (converted)
T4 construct: host or cells: HEK293T
T4 sequence (P28222 whole entry Y208F): as the sequence (P28222 whole entry V201I) above, with I201V, Y208F counted along it
Method: as §1, §2, §3, §4

S5.42A 5-HT1D receptor [3] = biological target: T5, S5.42A 5-HT1D receptor (Homo sapiens, UniProt P28221, S201A); assay: Radioligand binding, S5.42A 5-HT1D
T5 sequence (P28221 whole entry S201A): as the sequence (P28221 whole entry T342N) above, with S201A, N342T counted along it
Method: as §5, §6, §7

S5.42A 5-HT1D receptor [4] = biological target: T5, S5.42A 5-HT1D receptor; assay: cAMP accumulation in HEK293T cells, S5.42A 5-HT1D; assay type: cell-based; parameters: host or cells: HEK293T; conditions: point-mutated receptor, 3 independent experiments, read-out: pEC50 5-HT1D Receptor S5.42A (converted)
Method: as §1, §2, §4

Y5.38F 5-HT1D receptor [5] = biological target: T6, Y5.38F 5-HT1D receptor (Homo sapiens, UniProt P28221, Y197F); assay: cAMP accumulation in HEK293T cells, Y5.38F 5-HT1D; assay type: cell-based; parameters: host or cells: HEK293T; conditions: point-mutated receptor, 3 independent experiments, read-out: pEC50 5-HT1D Receptor Y5.38F (converted)
T6 sequence (P28221 whole entry Y197F): as the sequence (P28221 whole entry T342N) above, with Y197F, N342T counted along it
Method: as §1, §2, §4

V45.52I 5-HT1B receptor [6] = biological target: T1, V45.52I 5-HT1B receptor; assay: Radioligand binding, V45.52I 5-HT1B
Method: as §5, §6, §7

S5.42A 5-HT1B receptor = S5.42A 5-HT1B receptor (Homo sapiens, UniProt P28222, S212A); assay: cAMP accumulation in HEK293T cells, S5.42A 5-HT1B; assay type: cell-based; parameters: host or cells: HEK293T; conditions: point-mutated receptor, 3 independent experiments, read-out: pEC50 5-HT1B Receptor S5.42A (converted)
Chain of S5.42A 5-HT1B receptor (P28222 whole entry S212A): as the sequence (P28222 whole entry V201I) above, with I201V, S212A counted along it
Method: as §1, §2, §3, §4

human 5-HT1B receptor [7] = biological target: T3, human 5-HT1B receptor; assay: Radioligand binding (saturation and competition), WT 5-HT1B; conditions: for higher affinity at 5-HT1B over 5-HT1A receptors: affinity ratio
human 5-HT1A receptor = biological target: T7, human 5-HT1A receptor (Homo sapiens, UniProt P08908); assay: cAMP accumulation (LANCE Ultra TR-FRET) in HEK293T cells, WT 5-HT1A; assay type: cell-based; conditions: for Emax: HEK-293T; for EC50: cAMP accumulation, HEKt cells, mean ± SD
T7 construct: host or cells: HEK293T
T7 sequence (P08908 1-422): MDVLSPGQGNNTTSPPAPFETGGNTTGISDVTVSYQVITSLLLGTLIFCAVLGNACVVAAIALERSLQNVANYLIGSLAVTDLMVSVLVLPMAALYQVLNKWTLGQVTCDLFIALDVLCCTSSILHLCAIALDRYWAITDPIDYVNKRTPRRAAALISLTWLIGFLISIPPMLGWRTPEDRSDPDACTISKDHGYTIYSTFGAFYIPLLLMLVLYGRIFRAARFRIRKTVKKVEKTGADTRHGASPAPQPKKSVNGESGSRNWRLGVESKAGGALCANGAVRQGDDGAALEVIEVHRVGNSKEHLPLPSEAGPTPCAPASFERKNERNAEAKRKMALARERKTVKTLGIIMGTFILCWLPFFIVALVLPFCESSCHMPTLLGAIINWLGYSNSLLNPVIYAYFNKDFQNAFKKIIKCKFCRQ
Method: as §1, §2, §4

V45.52I 5-HT1D receptor = V45.52I 5-HT1D receptor (Homo sapiens, UniProt P28221, V190I); assay: cAMP accumulation in HEK293T cells, V45.52I 5-HT1D; assay type: cell-based; parameters: host or cells: HEK293T; conditions: point-mutated receptor, 3 independent experiments, read-out: pEC50 5-HT1D Receptor V45.52I (converted)
Chain of V45.52I 5-HT1D receptor (P28221 whole entry V190I): as the sequence (P28221 whole entry T342N) above, with V190I, N342T counted along it
Method: as §1, §2, §3, §4

Y5.38F 5-HT1D receptor [8] = biological target: T6, Y5.38F 5-HT1D receptor; assay: Radioligand binding, Y5.38F 5-HT1D
Method: as §5, §6, §7

[9] = read-out: 5-HT1B EMAX (%), WT receptor, normalized to basal (0%) and 10 μM 5-CT (100%)
[10] = read-out: 5-HT1A EMAX (%), WT receptor, normalized to basal (0%) and 10 μM 5-CT (100%)

For CN(C)[C@H]1CCc2c(cccc2-c2ccccc2F)C1 [(S)-FPT], the EC50 (V45.52I 5-HT1B receptor [1]) was 0.776 nM, the Ki (T7.39N 5-HT1B receptor) was 7.41 nM and the Ki (human 5-HT1F receptor) was > 10000 nM. For the same compound, the Ki (T7.39N 5-HT1D receptor) was 10.7 nM, the EC50 (human 5-HT1B receptor [2]; 5-HT1B pEC50, WT receptor) was 0.49 nM and the Emax (human 5-HT1B receptor [2]; [9]) was > 90%. For the same compound, the “5-HT1B EMAX (%)” value (human 5-HT1B receptor [2]; WT receptor, normalized to basal (0%) and 10 μM 5-CT (100%)) was 100 ± 2%, the EC50 (Y5.38F 5-HT1B receptor) was 0.813 nM and the Ki (S5.42A 5-HT1D receptor [3]) was 1.29 nM. The EC50 (S5.42A 5-HT1D receptor [4]) was 1.35 nM, the EC50 (Y5.38F 5-HT1D receptor [5]) was 1.55 nM and the Ki (V45.52I 5-HT1B receptor [6]) was 1.91 nM. For the same compound, the EC50 (S5.42A 5-HT1B receptor) was 1.02 nM, the “higher affinity at 5-HT1B over 5-HT1A receptors” value (human 5-HT1B receptor [7]) was 2 fold and the Emax (human 5-HT1A receptor; [10]) was 90 ± 2%. It also gave an EC50 (V45.52I 5-HT1D receptor) of 1.48 nM and a Ki (Y5.38F 5-HT1D receptor [8]) of 1.29 nM.

Compound CN(C)[C@H]1CCc2c(cccc2-c2cccc3ccccc23)C1 [(S)-NAP] has an EC50 (V45.52I 5-HT1B receptor [1]) of 224 nM, a Ki (T7.39N 5-HT1B receptor) of 6.46 nM and a Ki (human 5-HT1F receptor) of 5370 nM. The Ki (T7.39N 5-HT1D receptor) was 1.07 nM, the EC50 (human 5-HT1B receptor [2]; 5-HT1B pEC50, WT receptor) was 34.7 nM and the Emax (human 5-HT1B receptor [2]; [9]) was 30 ± 4%. For the same compound, the “higher functional potency at 5-HT1B over 5-HT1A receptors” value (human 5-HT1B receptor [2]; cAMP potency ratio) was “about 10 fold”, the EC50 (Y5.38F 5-HT1B receptor) was 35.5 nM and the Ki (S5.42A 5-HT1D receptor [3]) was 1.17 nM. For the same compound, the EC50 (S5.42A 5-HT1D receptor [4]) was 10 nM, the EC50 (Y5.38F 5-HT1D receptor [5]) was 11.2 nM and the Ki (V45.52I 5-HT1B receptor [6]) was 41.7 nM. The EC50 (S5.42A 5-HT1B receptor) was 35.5 nM, the Ki (human 5-HT1B receptor [7]; Affinity (pKi ± SD) 5-HT1B, WT receptor, [^3H]5-CT competition, mean ± SD) was 4.57 nM and the “higher affinity at 5-HT1B over 5-HT1A receptors” value (human 5-HT1B receptor [7]) was 10 fold. The EC50 (human 5-HT1A receptor; 5-HT1A pEC50, WT receptor) was 389 nM, the Emax (human 5-HT1A receptor; [10]) was 72 ± 4% and the EC50 (V45.52I 5-HT1D receptor) was 257 nM. It also gave a Ki (Y5.38F 5-HT1D receptor [8]) of 0.661 nM.

With Fc1ccccc1-c1cccc2c1CC[C@H](N1CCCC1)C2 [(S)-PFPT] the EC50 (V45.52I 5-HT1B receptor [1]) was 51.3 nM, the Ki (T7.39N 5-HT1B receptor) was 5.89 nM and the Ki (human 5-HT1F receptor; WT receptor, [^3H]5-HT competition, mean ± SD, read-out: Affinity (pKi ± SD) 5-HT1F (converted)) was > 10000 nM. It also gave a Ki (T7.39N 5-HT1D receptor) of 4.17 nM, an Emax (human 5-HT1B receptor [2]; read-out: 5-HT1B EMAX (%)) of 99 ± 2% and an EC50 (human 5-HT1B receptor [2]; WT receptor, read-out: 5-HT1B pEC50 (converted)) of 56.2 nM. For the same compound, the EC50 (Y5.38F 5-HT1B receptor) was 55 nM, the Ki (S5.42A 5-HT1D receptor [3]) was 41.7 nM and the EC50 (S5.42A 5-HT1D receptor [4]) was 309 nM. The EC50 (Y5.38F 5-HT1D receptor [5]) was 240 nM, the Ki (V45.52I 5-HT1B receptor [6]) was 14.5 nM and the EC50 (S5.42A 5-HT1B receptor) was 316 nM. The Ki (human 5-HT1B receptor [7]; read-out: Affinity (pKi ± SD) 5-HT1B (converted)) was 12 nM, the Emax (human 5-HT1A receptor; read-out: 5-HT1A EMAX (%)) was 100 ± 2% and the EC50 (human 5-HT1A receptor; WT receptor, read-out: 5-HT1A pEC50 (converted)) was 1.66 nM. For the same compound, the “higher functional potency at 5-HT1A over 5-HT1B and 5-HT1D receptors” value (human 5-HT1A receptor; cAMP potency ratio) was ~40 fold and 35 fold, the EC50 (V45.52I 5-HT1D receptor) was 58.9 nM and the Ki (Y5.38F 5-HT1D receptor [8]) was 41.7 nM.
